Experimental data: article PMC11193023 (The Journal of Biological Chemistry, 2024)

Target: T1, BwCuyA (Bilophila wadsworthia, UniProt E5Y343)
T1 sequence (E5Y343 1-333): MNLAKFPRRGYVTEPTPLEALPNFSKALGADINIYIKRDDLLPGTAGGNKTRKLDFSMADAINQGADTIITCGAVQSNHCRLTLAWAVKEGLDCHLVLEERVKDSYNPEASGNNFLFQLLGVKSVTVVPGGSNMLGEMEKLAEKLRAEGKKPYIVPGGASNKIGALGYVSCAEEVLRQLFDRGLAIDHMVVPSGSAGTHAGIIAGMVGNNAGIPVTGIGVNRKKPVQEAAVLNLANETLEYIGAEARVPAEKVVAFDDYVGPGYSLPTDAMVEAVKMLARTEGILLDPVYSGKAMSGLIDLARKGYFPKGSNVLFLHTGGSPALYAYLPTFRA
Assay: UV-Vis absorbance spectrum of purified enzyme
Format: binding
Conditions: enzyme as isolated; sub-stoichiometric PLP content

Structure (SMILES): Cc1ncc(COP(=O)(O)O)c(C=O)c1O [PLP]
- UV-Vis absorbance spectrum of purified enzyme: UV-Vis absorbance spectrum of BwCuyA exhibited characteristic features of the PLP cofactor
